Results from patent publication US20050196753A1, “Human coactivator-associated arginine methyltransferase 1 (hCARM1)” (priority 2002, published 2005).

Target: T1, hCARM1 (Homo sapiens, UniProt Q86X55)
T1 construct: evaluate whether the cloned full-length hCARM1 had methylating activity; made in house; host or cells: baculovirus infected insect cells
T1 sequence (Q86X55 1-608): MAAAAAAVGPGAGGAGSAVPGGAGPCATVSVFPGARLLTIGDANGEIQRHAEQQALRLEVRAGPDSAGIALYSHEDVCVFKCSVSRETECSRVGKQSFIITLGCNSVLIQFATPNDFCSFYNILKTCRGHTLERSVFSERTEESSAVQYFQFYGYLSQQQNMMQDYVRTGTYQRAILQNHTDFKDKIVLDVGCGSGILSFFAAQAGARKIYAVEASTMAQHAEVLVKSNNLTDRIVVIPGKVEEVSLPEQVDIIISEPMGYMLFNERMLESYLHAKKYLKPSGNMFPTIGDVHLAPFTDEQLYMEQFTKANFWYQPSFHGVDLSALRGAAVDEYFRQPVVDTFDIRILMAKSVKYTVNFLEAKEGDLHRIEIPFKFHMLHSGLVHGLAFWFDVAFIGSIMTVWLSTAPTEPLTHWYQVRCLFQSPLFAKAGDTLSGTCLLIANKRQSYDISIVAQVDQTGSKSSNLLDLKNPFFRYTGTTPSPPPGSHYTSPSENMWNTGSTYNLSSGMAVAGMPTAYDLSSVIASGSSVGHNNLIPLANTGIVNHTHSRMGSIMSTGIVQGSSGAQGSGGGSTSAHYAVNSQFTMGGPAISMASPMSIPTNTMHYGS
Experiment: Methylation assay: inhibition of hCARM1 mediated methylation of Histone H3
Assay type: biochemical
Conditions: Histone H3 substrate, 30° C. for 1 hr, SDS-PAGE/film
Experimental: Methylation assay protocol: Reactions were performed in IX methylation buffer containing 20 mM Tris.HCl, pH 8.0, 200 mM NaCl and 0.4 mM EDTA. Reactions were assembled with 2.5 ug of Histone H3 and increasing amounts of hCARM1 (0.25 ug, 0.5 ug, 1.25 ug, 2.5 ug, 3.75 ug, 5 ug, or 7.5 ug). A mock reaction where hCARM1 was omitted was used as the negative control. Reactions were incubated at 30° C. for 1 hr. prior to loading on a 10-20% gradient SDS-PAGE. The gel was fixed, dried and exposed to film.
A methylation reaction was performed in order to evaluate whether the cloned full-length hCARM1 had methylating activity. Mouse CARM1 has been previously shown to specifically methylate Histone H3 in vitro and in vivo.

N[C@@H](CCS)C(=O)O [homocysteine]
inhibition of hCARM1 mediated methylation: effectively inhibited
